Measurements taken from US20210169824A1, “USE OF CANNABINOIDS IN THE TREATMENT OF SEIZURES AS ASSOCIATED WITH LENNOX-GASTAUT SYNDROME” (GW Research Limited, priority 2017, published 2021).

Assays:
[1] = test system: seizures associated with Lennox-Gastaut syndrome (LGS) in treatment-resistant patients; assay: Pooled analysis of two randomised, double-blind, placebo-controlled 14-week studies of add-on cannabidiol in LGS patients deemed AED treatment failures; type: in vivo, human; conditions: for Total Seizure Frequency, Treatment Difference vs. Placebo / Drop Seizure Frequency, Treatment Difference vs. Placebo: Hodges-Lehmann estimated median difference; for Drop Seizure Frequency, Median % Change During Treatment / Total Seizure Frequency, Median % Change During Treatment: from baseline
Text: In two placebo-controlled studies of CBD as a treatment for seizures associated with LGS, cannabidiol was used as add-on treatment in patients who were defined as treatment-resistant. Patients had previously tried and stopped using a median of 6 AEDs, and were being maintained on a median of 3 AEDs.
The first study was a 1:1 randomised, double-blind, 14-week comparison of cannabidiol oral solution (CBD-OS) versus placebo. The treatment period consisted of a two-week titration period followed by a 12-week maintenance period. The treatment period was followed by a 10-day taper period and a four-week follow-up period. The study aimed to determine the efficacy, safety and tolerability of 20 mg/kg/day cannabidiol compared with placebo.
The second study was a 1:1:1 randomised, double-blind, 14-week comparison of two dose levels of cannabidiol (10 mg/kg/day and 20 mg/kg/day) versus placebo. The treatment period consisted of a two-week titration period followed by a 12-week maintenance period. The treatment period was followed by a 10-day taper period and a four-week follow-up period. The study aimed to determine the efficacy, safety and tolerability of two dose levels of CBD-OS compared with placebo. Patients in the placebo group were split into two equivalent cohorts; half receiving 10 mg/kg/day dosing volumes and half receiving 20 mg/kg/day dosing volumes.
In order to ensure that caregivers were able to interpret a seizure correctly, all caregivers underwent pre-study training, and their description and classification of a seizure was independently verified by a committee appointed by the Epilepsy Study Consortium
Despite the number of medications, the patients were already taking, the median number of drop seizures at baseline was in excess of 75 per month in both studies. These were patient populations with a high unmet medical need, who had already tried and failed multiple AEDs. In many cases, the AEDs they were being maintained on included those approved for the treatment of LGS; rufinamide, lamotrigine or topiramate.
An analysis of the change in seizure frequency for CBD vs placebo in patients who were currently taking, or had previously taken and stopped, each of rufinamide, lamotrigine or topiramate; felbamate was undertaken. Such patients can be reasonably defined as AED treatment failures.

[2] = patients with epilepsy, open label study, Gaston et al. 2017; cited from earlier work
[3] = Felbamate treatment failures, 10 mg/kg/day, N = 22
[4] = Felbamate treatment failures, 10 mg/kg/day, N = 22, P-value 0.1921 vs placebo
[5] = Felbamate treatment failures, 20 mg/kg/day, N = 38
[6] = Felbamate treatment failures, 20 mg/kg/day, N = 38, P-value 0.0068 vs placebo
[7] = Lamotrigine treatment failures, 10 mg/kg/day, N = 49
[8] = Lamotrigine treatment failures, 10 mg/kg/day, N = 49, P-value 0.0131 vs placebo
[9] = Lamotrigine treatment failures, 20 mg/kg/day, N = 114
[10] = Lamotrigine treatment failures, 20 mg/kg/day, N = 114, P-value <0.0001 vs placebo
[11] = Rufinamide treatment failures, 10 mg/kg/day, N = 47
[12] = Rufinamide treatment failures, 10 mg/kg/day, N = 47, P-value 0.1836 vs placebo
[13] = Rufinamide treatment failures, 20 mg/kg/day, N = 95
[14] = Rufinamide treatment failures, 20 mg/kg/day, N = 95, P-value 0.0011 vs placebo
[15] = Topiramate treatment failures, 10 mg/kg/day, N = 56
[16] = Topiramate treatment failures, 10 mg/kg/day, N = 56, P-value 0.0517 vs placebo
[17] = Topiramate treatment failures, 20 mg/kg/day, N = 111
[18] = Topiramate treatment failures, 20 mg/kg/day, N = 111, P-value 0.0016 vs placebo
[19] = felbamate treatment failures, 20 mg/kg dose
[20] = lamotrigine treatment failures, both doses (10 and 20 mg/kg/day)
[21] = rufinamide treatment failures, 20 mg/kg/day dose

C=C(C)[C@@H]1CCC(C)=C[C@H]1c1c(O)cc(CCCCC)cc1O [Cannabidiol]
reduction in drop and total seizure frequency in patients deemed to be treatment failures ([1]; CBD combined with rufinamide, lamotrigine, topiramate or felbamate): statistically significant reduction | Total Seizure Frequency, Treatment Difference vs. Placebo ([1]; Felbamate treatment failures, 10 mg/kg/day, P-value 0.0282): −21.77% | Drop Seizure Frequency, Treatment Difference vs. Placebo ([1]; Felbamate treatment failures, 10 mg/kg/day, P-value 0.2984): −11.57% | Drop Seizure Frequency, Treatment Period Median [1, 3]: 68.26 per 28 Days | Total Seizure Frequency, Treatment Period Median [1, 3]: 103.09 per 28 Days | Number of Responders, ≥50% Reduction in Drop Seizure Frequency from Baseline [1, 4]: 6 | Responders (%), ≥50% Reduction in Drop Seizure Frequency from Baseline [1, 4]: 27.3% | Drop Seizure Frequency, Median % Change During Treatment [1, 3]: −30.50% | Total Seizure Frequency, Median % Change During Treatment [1, 3]: −34.36% | Drop Seizure Frequency, Treatment Difference vs. Placebo ([1]; Felbamate treatment failures, 20 mg/kg/day, P-value 0.0930): −17.76% | Total Seizure Frequency, Treatment Difference vs. Placebo ([1]; Felbamate treatment failures, 20 mg/kg/day, P-value 0.1179): −14.58% | Drop Seizure Frequency, Treatment Period Median [1, 5]: 47.32 per 28 Days | Total Seizure Frequency, Treatment Period Median [1, 5]: 102.20 per 28 Days | Number of Responders, ≥50% Reduction in Drop Seizure Frequency from Baseline [1, 6]: 15 | Responders (%), ≥50% Reduction in Drop Seizure Frequency from Baseline [1, 6]: 39.5% | Drop Seizure Frequency, Median % Change During Treatment [1, 5]: −31.62% | Total Seizure Frequency, Median % Change During Treatment [1, 5]: −27.56% | Drop Seizure Frequency, Treatment Difference vs. Placebo ([1]; Lamotrigine treatment failures, 10 mg/kg/day, P-value 0.0040): −18.79% | Total Seizure Frequency, Treatment Difference vs. Placebo ([1]; Lamotrigine treatment failures, 10 mg/kg/day, P-value 0.0044): −19.63% | Drop Seizure Frequency, Treatment Period Median [1, 7]: 40.29 per 28 Days | Total Seizure Frequency, Treatment Period Median [1, 7]: 68.41 per 28 Days | Number of Responders, ≥50% Reduction in Drop Seizure Frequency from Baseline [1, 8]: 17 | Responders (%), ≥50% Reduction in Drop Seizure Frequency from Baseline [1, 8]: 34.7% | Drop Seizure Frequency, Median % Change During Treatment [1, 7]: −37.16% | Total Seizure Frequency, Median % Change During Treatment [1, 7]: −32.87% | Total Seizure Frequency, Treatment Difference vs. Placebo ([1]; Lamotrigine treatment failures, 20 mg/kg/day, P-value 0.0008): −17.35% | Drop Seizure Frequency, Treatment Difference vs. Placebo ([1]; Lamotrigine treatment failures, 20 mg/kg/day, P-value 0.0023): −19.24% | Drop Seizure Frequency, Treatment Period Median [1, 9]: 36.30 per 28 Days | Total Seizure Frequency, Treatment Period Median [1, 9]: 98.64 per 28 Days | Number of Responders, ≥50% Reduction in Drop Seizure Frequency from Baseline [1, 10]: 47 | Responders (%), ≥50% Reduction in Drop Seizure Frequency from Baseline [1, 10]: 41.2% | Drop Seizure Frequency, Median % Change During Treatment [1, 9]: −40.74% | Total Seizure Frequency, Median % Change During Treatment [1, 9]: −34.44% | Total Seizure Frequency, Treatment Difference vs. Placebo ([1]; Rufinamide treatment failures, 10 mg/kg/day, P-value 0.0062): −17.54% | Drop Seizure Frequency, Treatment Difference vs. Placebo ([1]; Rufinamide treatment failures, 10 mg/kg/day, P-value 0.1314): −9.80% | Drop Seizure Frequency, Treatment Period Median [1, 11]: 56.00 per 28 Days | Total Seizure Frequency, Treatment Period Median [1, 11]: 95.51 per 28 Days | Number of Responders, ≥50% Reduction in Drop Seizure Frequency from Baseline [1, 12]: 13 | Responders (%), ≥50% Reduction in Drop Seizure Frequency from Baseline [1, 12]: 27.7% | Drop Seizure Frequency, Median % Change During Treatment [1, 11]: −32.95% | Total Seizure Frequency, Median % Change During Treatment [1, 11]: −31.25% | Total Seizure Frequency, Treatment Difference vs. Placebo ([1]; Rufinamide treatment failures, 20 mg/kg/day, P-value 0.0008): −19.43% | Drop Seizure Frequency, Treatment Difference vs. Placebo ([1]; Rufinamide treatment failures, 20 mg/kg/day, P-value 0.0022): −19.34% | Drop Seizure Frequency, Treatment Period Median [1, 13]: 42.30 per 28 Days | Total Seizure Frequency, Treatment Period Median [1, 13]: 102.20 per 28 Days | Number of Responders, ≥50% Reduction in Drop Seizure Frequency from Baseline [1, 14]: 37 | Responders (%), ≥50% Reduction in Drop Seizure Frequency from Baseline [1, 14]: 38.9% | Drop Seizure Frequency, Median % Change During Treatment [1, 13]: −38.78% | Total Seizure Frequency, Median % Change During Treatment [1, 13]: −34.90% | Total Seizure Frequency, Treatment Difference vs. Placebo ([1]; Topiramate treatment failures, 10 mg/kg/day, P-value 0.0047): −17.04% | Drop Seizure Frequency, Treatment Difference vs. Placebo ([1]; Topiramate treatment failures, 10 mg/kg/day, P-value 0.0074): −16.92% | Drop Seizure Frequency, Treatment Period Median [1, 15]: 57.02 per 28 Days | Total Seizure Frequency, Treatment Period Median [1, 15]: 88.31 per 28 Days | Number of Responders, ≥50% Reduction in Drop Seizure Frequency from Baseline [1, 16]: 17 | Responders (%), ≥50% Reduction in Drop Seizure Frequency from Baseline [1, 16]: 30.4% | Drop Seizure Frequency, Median % Change During Treatment [1, 15]: −36.08% | Total Seizure Frequency, Median % Change During Treatment [1, 15]: −31.57% | Total Seizure Frequency, Treatment Difference vs. Placebo ([1]; Topiramate treatment failures, 20 mg/kg/day, P-value 0.0034): −15.87% | Drop Seizure Frequency, Treatment Difference vs. Placebo ([1]; Topiramate treatment failures, 20 mg/kg/day, P-value 0.0069): −16.83% | Drop Seizure Frequency, Treatment Period Median [1, 17]: 44.00 per 28 Days | Total Seizure Frequency, Treatment Period Median [1, 17]: 101.71 per 28 Days | Number of Responders, ≥50% Reduction in Drop Seizure Frequency from Baseline [1, 18]: 40 | Responders (%), ≥50% Reduction in Drop Seizure Frequency from Baseline [1, 18]: 36.0% | Drop Seizure Frequency, Median % Change During Treatment [1, 17]: −34.13% | Total Seizure Frequency, Median % Change During Treatment [1, 17]: −33.76% | proportion of patients with a 50% reduction in drop seizure frequency compared with placebo [1, 19]: statistically significantly greater proportion | reduction in drop seizure frequency compared with placebo [1, 19]: marginally statistically significantly greater reduction | proportion of patients with a 50% reduction in drop seizure frequency compared with placebo [1, 20]: significantly greater proportion | reduction in both drop and total seizure frequency compared with placebo [1, 20]: significantly greater reduction | benefit in patients taking without seizure control, or having stopped, the AEDs authorised for LGS in the EU ([1]; pooled data from two studies, effect most significant at 20 mg/kg/day): significant benefit | proportion of patients with a 50% reduction in drop seizure frequency compared with placebo [1, 21]: significantly greater proportion | reduction in drop and total seizure frequency compared with placebo [1, 21]: significantly greater reduction | reduction in both drop and total seizure frequency compared with placebo ([1]; topiramate treatment failures, both doses (10 and 20 mg/kg/day)): significantly greater reduction | proportion of patients with a 50% reduction in drop seizure frequency compared with placebo ([1]; topiramate treatment failures, both doses, statistical significance for 20 mg/kg/day, only marginal for 10 mg/kg/day): greater proportion | serum levels of some AEDs in the presence of CBD [2]: increased
